# In US20050131028A1, “Methods and compositions for the extended duration treatment of pain, inflammation and inflammation-related disorders” (Pharmacia Corporation, priority 2003, published 2005):
# “And” between values parts separate entries of the source, which are not always exact repeats. Identical values can stand only once. Like-named read-outs stand apart in the source and are kept apart here.
# Tests used:
# [1] = Rat pharmacokinetics, single oral dose, non-cassette; type: in vivo; conditions: for half-life: rat
# Description: All rat pharmacokinetics data is non-cassette dosed. Non-cassette dosed pharmacokinetics means that each compound was dosed individually (i.e. not part of a cassette of compounds). Cassette-dosing is a technique in which 2 or more compounds are simultaneously administered to an animal and the pharmacokinetics of each compound is monitored individually even though it is in the same animal/blood sample.
# At each sample collection time, blood samples were collected from three rats by cardiac puncture and then processed into plasma. […] Plasma drug concentrations were then determined by liquid chromatography-mass spectrometry methods. The mean plasma concentrations from each of the three samples collected at each time point were then plotted as a function of time. This process was repeated for each compound tested.
# [2] = Canine pharmacokinetics, compounds dosed individually; type: in vivo, canines (beagles); conditions: beagle, dog, plasma, oral 2 or 4 mg/kg, read-out: Canine t1/2 (converted)
# Description: In this example, each compound was administered individually to canines (not cassette dosed). […] Plasma drug concentrations were then determined by liquid chromatography-mass spectrometry methods. This process was repeated for each compound tested.
# [3] = Canine cassette-dosed pharmacokinetics; type: in vivo, canines (beagles); conditions: for half-life: beagle, dog, plasma, 2 mg/kg; for increase in plasma half-life in canines: versus 4-methylphenyl compound
# Description: Cassette-dosing is a technique in which 2 or more compounds are simultaneously administered to an animal and the pharmacokinetics of each compound is monitored individually even though it is in the same animal/blood sample.
# Cassette-dosing refers to the practice of dosing 2 or more compounds simultaneously to animals. […] Blood samples were collected over time intervals ranging from 0 to 50 days into EDTA tubes and plasma harvested. Plasma drug concentrations were then determined for each compound in the cassette by liquid chromatography-mass spectrometry methods. This process was repeated for each group of compounds (cassette) tested.
# hCOX-1 = hCOX-1 (Homo sapiens, UniProt P23219); experiment: hCOX-1 enzyme inhibition (IC50); type: biochemical; conditions: repeated experimental results listed separately
# Sequence of hCOX-1 (P23219 24-599): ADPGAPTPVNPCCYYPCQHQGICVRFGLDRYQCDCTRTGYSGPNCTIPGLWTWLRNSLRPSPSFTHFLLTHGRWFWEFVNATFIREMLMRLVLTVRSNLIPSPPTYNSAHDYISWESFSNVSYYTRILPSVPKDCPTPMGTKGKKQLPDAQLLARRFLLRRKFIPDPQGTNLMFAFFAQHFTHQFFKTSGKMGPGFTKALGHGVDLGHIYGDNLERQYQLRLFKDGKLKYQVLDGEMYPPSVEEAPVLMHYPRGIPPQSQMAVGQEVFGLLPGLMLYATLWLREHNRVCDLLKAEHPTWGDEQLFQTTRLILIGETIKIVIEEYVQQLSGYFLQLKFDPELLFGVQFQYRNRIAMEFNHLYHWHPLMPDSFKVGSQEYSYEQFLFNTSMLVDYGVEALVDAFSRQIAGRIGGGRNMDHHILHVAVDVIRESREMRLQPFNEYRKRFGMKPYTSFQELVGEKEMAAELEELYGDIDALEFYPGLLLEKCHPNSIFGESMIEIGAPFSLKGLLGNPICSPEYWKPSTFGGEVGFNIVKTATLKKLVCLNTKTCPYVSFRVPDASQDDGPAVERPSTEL
# Description: (§1) The specificity of a given extended duration Cox-2 inhibitor is measured by determining the IC50 or EC50 for each compound described above.
# hCOX-2 = target: T1, hCOX-2 (Homo sapiens, UniProt P35354); experiment: hCOX-2 enzyme inhibition (IC50) and selectivity; type: biochemical; conditions: for hCOX selectivity hCOX-1/hCOX-2: Cox-1 IC50/Cox-2 IC50; for IC50: repeated experimental results listed separately
# T1 sequence (P35354 18-604): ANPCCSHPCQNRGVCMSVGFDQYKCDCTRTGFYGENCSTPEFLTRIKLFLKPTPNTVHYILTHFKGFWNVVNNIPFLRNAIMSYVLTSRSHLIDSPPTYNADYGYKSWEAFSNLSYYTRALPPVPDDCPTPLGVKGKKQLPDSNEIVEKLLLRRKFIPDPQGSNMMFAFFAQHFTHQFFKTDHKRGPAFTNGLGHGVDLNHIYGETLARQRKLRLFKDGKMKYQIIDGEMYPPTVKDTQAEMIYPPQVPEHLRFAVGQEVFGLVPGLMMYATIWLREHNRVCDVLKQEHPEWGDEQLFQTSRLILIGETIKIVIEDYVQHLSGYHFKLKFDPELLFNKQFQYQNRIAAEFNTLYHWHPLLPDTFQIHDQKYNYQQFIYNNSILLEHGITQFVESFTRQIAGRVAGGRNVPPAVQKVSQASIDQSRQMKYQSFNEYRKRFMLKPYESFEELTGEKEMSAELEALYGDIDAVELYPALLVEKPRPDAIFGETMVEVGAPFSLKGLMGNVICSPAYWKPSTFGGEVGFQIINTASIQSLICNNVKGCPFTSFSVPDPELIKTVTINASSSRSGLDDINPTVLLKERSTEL
# Description: as §1
# [4] = test system: adjuvant-induced arthritis in male Lewis rats; experiment: Adjuvant-induced arthritis in rat paws (paw volume); type: in vivo; conditions: single oral dose, 3 mg/kg (FIG. 2) / 3 mg/mL, followed 28 days
# Description: This experiment was performed following a modified method of Connor, J. et al. (European J. Pharmacology, 1995, 273:15-24). Briefly, arthritis was induced in pathogen-free, male Lewis rats by an intadermal injection of 20 mg/ml Mycobacterium butyricum suspended in squalene in three sites at the base of the tail. The injection of mycobacteria produces a systemic autoimmune response and subsequent chronic inflammation of the joints with many similarities to rheumatoid arthritis. The induced arthritis was allowed to develop for 14 days at which time animals were given a single oral dose of a Cox-2 selective inhibitor at […]. Effectiveness was assessed by the decrease in rat paw edema (paw volume) for 28 days following the Cox-2 inhibitor dose. Paw volume was determined using a water displacement plethysmometer. To gage the drug response, the paw volumes of rats treated with Cox-2 selective inhibitors were compared to normal healthy rats without induced arthritis and without drug (normal-control group) and rats with induced arthritis but without drug (adjuvant-control group).
# All of the compounds tested in this model were effective for a minimum of 5 days.
# [5] = cited from earlier work
# [6] = plasma, po, 2 mg/kg, plasma, oral 2 mg/kg, non-cassette dosed, read-out: Rat t1/2 (converted)
# [7] = po, oral 2 mg/kg each compound, cassette, read-out: Canine Cassette-dosed t1/2 (converted)
Compound,"half-life [1, 6] [h]",half-life [2] [h],"half-life [3, 7] [h]",IC50 (hCOX-1),IC50 (hCOX-2),further results
"NS(=O)(=O)c1ccc(-n2nc(C(F)(F)F)cc2-c2ccc(Cl)cc2Cl)cc1 [4-[5-(2,4-[dichlorophenyl)-3-(trifluoromethyl)-1H-pyrazol-1-yl]benzenesulfonamide]",97,466,~771,–,–,–
"NS(=O)(=O)c1ccc(-n2nc(C(F)(F)F)cc2-c2ccc(F)cc2F)cc1 [4-[5-(2,4-[difluorophenyl)-3-(trifluoromethyl)-1H-pyrazol-1-yl]benzenesulfonamide]",25,233,~716,38.4 µM and 14 µM and 22.4 µM,0.149 µM and 0.036 µM and < 0.137 µM,hCOX selectivity hCOX-1/hCOX-2 (hCOX-2): 393
"COc1c(Cl)cc(-c2cc(C(F)(F)F)nn2-c2ccc(S(N)(=O)=O)cc2)cc1Cl [4-[5-(3,5-dichloro-4-methoxyphenyl)-3-(trifluoromethyl)-1H-pyrazol-1-yl]benzenesulfonamide]",–,–,~17,–,0.0547 µM and 0.039 µM,–
Cc1ccc(-c2cc(C(F)(F)F)nn2-c2ccc(S(N)(=O)=O)cc2)cc1Cl [4-[5-(3-chloro-4-methylphenyl)-3-(trifluoromethyl)-1H-pyrazol-1-yl]benzenesulfonamide],5.1,–,17,57 µM and 12.5 µM and 14.3 µM,0.0249 µM and < 0.137 µM and 0.007 µM,hCOX selectivity hCOX-1/hCOX-2 (hCOX-2): 2289
COc1cc(-c2cc(C(F)(F)F)nn2-c2ccc(S(N)(=O)=O)cc2)ccc1Br [4-[5-(4-bromo-3-methoxyphenyl)-3-(trifluoromethyl)-1H-pyrazol-1-yl]benzenesulfonamide],–,71,–,30.3 µM and 35.3 µM,0.0453 µM and < 0.137 µM,hCOX selectivity hCOX-1/hCOX-2 (hCOX-2): 669
"COc1c(C)cc(-c2cc(C(F)(F)F)nn2-c2ccc(S(N)(=O)=O)cc2)cc1C [4-[5-(4-methoxy-3,5-dimethylphenyl)-3-(trifluoromethyl)-1H-pyrazol-1-yl]benzenesulfonamide]",–,–,~18,> 100 µM,0.08 µM,–
Cc1ccc(-c2cc(C(F)(F)F)nn2-c2ccc(S(N)(=O)=O)cc2)cc1 [4-[5-(4-methylphenyl)-3-(trifluoromethyl)-1H-pyrazol-1-yl]benzenesulfonamide],–,–,–,–,–,"Canine t1/2 ([5]; comparison data for the 4-methylphenyl compound): 1.72 to 5.18 h; effective half-life in canines ([5]; fast metabolizing subtype (so in the source)): 5.72 h; effective half-life in canines ([5]; slow metabolizing subtype (so in the source)): 1.72 h; half-life ([1]; female, in vivo, female rats, non-cassette dosed, comparison data, read-out: Rat t1/2 in Female (converted)): 14 h; half-life ([1]; male, in vivo, male rats, non-cassette dosed, comparison data, read-out: Rat t1/2 in Male (converted)): 3.73 h"

# Continued, in another order:
"half-life [1, 6] [h]",half-life [2] [h],"half-life [3, 7] [h]",Compound,IC50 (hCOX-1),IC50 (hCOX-2),further results
157,762,~830,"NS(=O)(=O)c1ccc(-n2nc(C(F)(F)F)cc2-c2ccc(Cl)c(Cl)c2)cc1 [4-[5-(3,4-dichlorophenyl)-3-(trifluoromethyl)-1H-pyrazol-1-yl]benzenesulfonamide]",–,–,effectiveness in minimizing rat paw volume over longer time periods [4]: effective extended duration compounds
59,500,~881,"NS(=O)(=O)c1ccc(-n2nc(C(F)(F)F)cc2-c2ccc(F)c(F)c2)cc1 [4-[5-(3,4-difluorophenyl)-3-(trifluoromethyl)-1H-pyrazol-1-yl]benzenesulfonamide]",–,–,–
–,–,~22,COc1ccc(-c2cc(C(F)(F)F)nn2-c2ccc(S(N)(=O)=O)cc2)cc1Cl [4-[5-(3-chloro-4-methoxyphenyl)-3-(trifluoromethyl)-1H-pyrazol-1-yl]benzenesulfonamide],–,–,–
–,12,~44,Cc1cc(-c2cc(C(F)(F)F)nn2-c2ccc(S(N)(=O)=O)cc2)ccc1Cl [4-[5-(4-chloro-3-methylphenyl)-3-(trifluoromethyl)-1H-pyrazol-1-yl]benzenesulfonamide],4.92 µM,< 0.137 µM,–
193,–,~1190,NS(=O)(=O)c1ccc(-n2nc(C(F)(F)F)cc2-c2ccc(Cl)cc2)cc1 [4-[5-(4-chlorophenyl)-3-(trifluoromethyl)-1H-pyrazol-1-yl]benzenesulfonamide],–,–,"half-life ([1]; plasma, oral, 2 mg/kg, single dosage administration, read-out: Rat half-life (converted)): 192 h; Rat half-life ([1]; single dosage administration): ≤ 190 h; half-life ([3]; oral, cassette-dosed, single dosage, read-out: canine half-life (converted)): ~1180 h; canine half-life ([3]; cassette-dosed, single dosage): ≤ 1180 h; increase in plasma half-life in canines ([3]; fast metabolizing subtype): 207 fold; increase in plasma half-life in canines ([3]; slow metabolizing subtype): 691 fold; duration of therapeutically effective blood concentration ([3]; without increased or additional dosing): at least 24 hours"
32,289,572,NS(=O)(=O)c1ccc(-n2nc(C(F)(F)F)cc2-c2ccc(F)cc2)cc1 [4-[5-(4-fluorophenyl)-3-(trifluoromethyl)-1H-pyrazol-1-yl]benzenesulfonamide],–,–,–
–,–,~36,COc1ccc(-c2cc(C(F)(F)F)nn2-c2ccc(S(N)(=O)=O)cc2)cc1C [4-[5-(4-methoxy-3-methylphenyl)-3-(trifluoromethyl)-1H-pyrazol-1-yl]benzenesulfonamide],–,–,–
–,–,~21,COc1ccc(-c2cc(C(F)(F)F)nn2-c2ccc(S(N)(=O)=O)cc2)cc1 [4-[5-(4-methoxyphenyl)-3-(trifluoromethyl)-1H-pyrazol-1-yl]benzenesulfonamide],–,–,–
